Source: ChEMBL document CHEMBL1137108, “Antiviral compounds from traditional Chinese medicines Galla Chinese as inhibitors of HCV NS3 protease” (Bioorg Med Chem Lett, 2004)

Target: NS3 (Hepatitis C virus, UniProt A3EZJ3)
Test: Inhibitory activity against Hepatitis C virus NS3 protease by ELISA
Design: species or system Hepacivirus hominis

Chain of NS3 (A3EZJ3 whole entry): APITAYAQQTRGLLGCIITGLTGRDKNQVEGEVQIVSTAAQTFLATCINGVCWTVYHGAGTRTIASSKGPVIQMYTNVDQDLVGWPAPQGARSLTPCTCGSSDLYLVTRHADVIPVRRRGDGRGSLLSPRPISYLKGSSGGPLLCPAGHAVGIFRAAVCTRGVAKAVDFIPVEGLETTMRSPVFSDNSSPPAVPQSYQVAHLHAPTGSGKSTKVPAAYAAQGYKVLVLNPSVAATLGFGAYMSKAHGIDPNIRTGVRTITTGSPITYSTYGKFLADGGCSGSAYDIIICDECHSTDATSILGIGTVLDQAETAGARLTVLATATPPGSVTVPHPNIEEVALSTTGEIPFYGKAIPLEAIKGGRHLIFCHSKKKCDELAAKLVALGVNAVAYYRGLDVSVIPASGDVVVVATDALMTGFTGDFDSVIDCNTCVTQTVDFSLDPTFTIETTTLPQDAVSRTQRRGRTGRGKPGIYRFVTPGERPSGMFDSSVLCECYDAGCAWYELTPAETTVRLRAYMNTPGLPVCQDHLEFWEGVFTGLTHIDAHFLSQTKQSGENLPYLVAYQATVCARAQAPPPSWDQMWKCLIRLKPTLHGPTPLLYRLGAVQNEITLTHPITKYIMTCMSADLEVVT

IC50 [µM]	SMILES
0.75	O=C(OC[C@H]1O[C@H](OC(=O)c2cc(O)c(O)c(O)c2)[C@H](OC(=O)c2cc(O)c(O)c(O)c2)[C@@H](OC(=O)c2cc(O)c(O)c(O)c2)[C@@H]1O)c1cc(O)c(O)c(O)c1
1.89	O=C(OC[C@H]1O[C@@H](OC(=O)c2cc(O)c(O)c(O)c2)[C@H](OC(=O)c2cc(O)c(O)c(O)c2)[C@@H](O)[C@@H]1O)c1cc(O)c(O)c(O)c1

SMILES	IC50 [µM]
O=C(OC[C@H]1O[C@@H](OC(=O)c2cc(O)c(O)c(O)c2)[C@H](OC(=O)c2cc(O)c(O)c(O)c2)[C@@H](OC(=O)c2cc(O)c(O)c(O)c2)[C@@H]1OC(=O)c1cc(O)c(O)c(O)c1)c1cc(O)c(O)c(O)c1 [PENTAGALLOYL GLUCOSE]	1.6
